# Source: US20040249122A1, “Cationic, amphipathic beta-sheet peptides and uses thereof” (priority 2003, published 2004)
# “Also recorded” adds a separate entry of the source. Where a SMILES comes first, the peptide text is derived from it. The star is where a group is joined. Octanoyl = CCCCCCCC(=O)*
# Experiments:
# [1] = tested on: E. coli, S. aureus, and P. aeruginosa; format: cell-based
# Experimental: Antimicrobial and Hemolytic Assays. Antimicrobial susceptibility testing against Staphylococcus aureus (ATCC 29213), Escherichia coli (ATCC 25922), and Pseudomonas aeruginosa (ATCC 27853) was performed using a modification of the National Committee for Clinical Laboratory Standards microdilution broth assay (22). Mueller-Hinton broth (BBL) was used for diluting the peptide stock solution and for diluting the bacterial inoculum. The inoculum was prepared from mid-logarithmic phase cultures. Microtiter plate wells received aliquots-of 100 μL each of the inoculum and peptide dilution. The final concentration of peptide solution ranged-from 0.25 to 256 μg/mL in two-fold dilutions. The final concentration of bacteria in the wells was 5×10^5 CFU/mL. Peptides were tested in duplicate. In addition to the test peptide, three standard peptides and a non-treated growth control were included to validate the assay. The microtiter plates were incubated overnight at 37° C. and the absorbance was measured at 600 nm. […] Hemolysis at peptide concentrations of 500 μg/mL was determined using a 5% suspension of freshly drawn human erythrocytes, which had been washed twice in phosphate buffered saline. After incubation at 37° C. for 30 min, the suspension was centrifuged at 10,000×g for 10 min and the absorbance at 400 nm was measured. Complete hemolysis was determined by adding 0.2% Triton X-100 in place of the peptide.
# [2] = tested on: Staphylococcus aureus (ATCC 29213); format: cell-based; conditions: ATCC 29213
# Experimental: (§1) Antimicrobial and Hemolytic Assays. Antimicrobial susceptibility testing against Staphylococcus aureus (ATCC 29213), Escherichia coli (ATCC 25922), and Pseudomonas aeruginosa (ATCC 27853) was performed using a modification of the National Committee for Clinical Laboratory Standards microdilution broth assay (22). Mueller-Hinton broth (BBL) was used for diluting the peptide stock solution and for diluting the bacterial inoculum. The inoculum was prepared from mid-logarithmic phase cultures. […] The final concentration of peptide solution ranged-from 0.25 to 256 μg/mL in two-fold dilutions. The final concentration of bacteria in the wells was 5×10^5 CFU/mL. Peptides were tested in duplicate. In addition to the test peptide, three standard peptides and a non-treated growth control were included to validate the assay. The microtiter plates were incubated overnight at 37° C. and the absorbance was measured at 600 nm. […] After incubation at 37° C. for 30 min, the suspension was centrifuged at 10,000×g for 10 min and the absorbance at 400 nm was measured.
# [3] = tested on: Escherichia coli (ATCC 25922); format: cell-based; conditions: ATCC 25922
# Experimental: as §1
# [4] = tested on: Pseudomonas aeruginosa (ATCC 27853); format: cell-based; conditions: ATCC 27853
# Experimental: as §1
# [5] = Peptide-induced leakage from calcein-loaded LUV
# Experimental: Peptide-Induced Leakage from Calcein-Loaded LUV. The ability of the peptides to release calcein (MW 623) from LUV of varying lipid composition was compared. LUV were prepared as above, except that-the buffer consisted of 50 mM HEPES, 100 mM NaCl, 0.3 mM EDTA, 80 mM calcein, pH 7.4. Calcein-loaded vesicles were separated from free calcein by size-exclusion chromatography using a Sephadex G-50 column and calcein-free buffer. Calcein leakage was monitored using a Perkin-Elmer LS-500 luminescence spectrometer by measuring the time-dependent increase in fluorescence of calcein (excitation=490 nm, emission=520 nm). LUV containing 8 nmoles of lipid were added to 1.5 mL of buffer in a stirred cuvet at 25° C. An aliquot of peptide was added to achieve the desired lipid-to-peptide ratio (256 to 8). Complete leakage was determined by the addition of 20 μL of 10% Triton X-100. Each value represents at least nine different measurements using at least three different LUV preparations.
SMILES,MIC Staph. aureus [2] [µg/mL],MIC E. coli [3] [µg/mL],MIC Pseud. aerug [4] [µg/mL],MIC values [1] [µg/mL],antimicrobial activity (in words) [1],calcein leakage from LUV (in words) ([5]; LUVs from E. coli lipids),calcein leakage from LUV (in words) ([5]; POPC (PC) LUV)
"CC(C)C[C@H](NC(=O)CNC(=O)[C@H](CCCCN)NC(=O)[C@H](C)NC(=O)[C@H](CC(C)C)NC(=O)[C@H](CCCCN)NC(=O)[C@H](C)NC(=O)[C@H](CC(C)C)NC(=O)CNC(=O)[C@H](CCCCN)NC(=O)[C@H](C)NC(=O)[C@H](Cc1c[nH]c2ccccc12)NC(=O)[C@H](CCCCN)NC(=O)[C@H](C)NC(=O)[C@H](CC(C)C)NC(=O)CNC(=O)[C@H](CCCCN)NC(=O)[C@H](C)NC(=O)[C@H](CC(C)C)NC(=O)[C@@H](N)CCCCN)C(=O)N[C@@H](C)C(N)=O [1,4-Hept, KLAKGLAKWAKGLAKLAKGLA-NH2] (H-KLAKGLAKWAKGLAKLAKGLA-NH2; N-terminus assumed)",8 to 16,8,32,,relatively low MIC values,,
"CC(C)C[C@H](NC(=O)[C@H](CCCCN)NC(=O)CNC(=O)[C@H](C)NC(=O)[C@H](CC(C)C)NC(=O)[C@H](CCCCN)NC(=O)[C@H](C)NC(=O)[C@H](CC(C)C)NC(=O)[C@H](CCCCN)NC(=O)CNC(=O)[C@H](C)NC(=O)[C@H](Cc1c[nH]c2ccccc12)NC(=O)[C@H](CCCCN)NC(=O)[C@H](C)NC(=O)[C@H](CC(C)C)NC(=O)[C@H](CCCCN)NC(=O)CNC(=O)[C@H](C)NC(=O)[C@H](CC(C)C)NC(=O)[C@@H](N)CCCCN)C(=O)N[C@@H](C)C(N)=O [1,5-Hept, KLAGKLAKWAGKLAKLAGKLA-NH2] (H-KLAGKLAKWAGKLAKLAGKLA-NH2; N-terminus assumed)",4,8,16,,relatively low MIC values,,
"CC(C)C[C@H](NC(=O)CNC(=O)[C@H](C)NC(=O)[C@H](CC(C)C)NC(=O)[C@H](CCCCN)NC(=O)[C@H](C)NC(=O)[C@H](CCCCN)NC(=O)[C@H](CC(C)C)NC(=O)CNC(=O)[C@H](C)NC(=O)[C@H](Cc1c[nH]c2ccccc12)NC(=O)[C@H](CCCCN)NC(=O)[C@H](C)NC(=O)[C@H](CCCCN)NC(=O)[C@H](CC(C)C)NC(=O)CNC(=O)[C@H](C)NC(=O)[C@H](CC(C)C)NC(=O)[C@@H](N)CCCCN)C(=O)N[C@@H](CCCCN)C(=O)N[C@@H](C)C(N)=O [1,6-Hept, KLAGLKAKWAGLKAKLAGLKA-NH2] (H-KLAGLKAKWAGLKAKLAGLKA-NH2; N-terminus assumed)",>256,>256,>256,,devoid of antimicrobial activity,,
"CC(C)C[C@H](NC(=O)CNC(=O)[C@H](C)NC(=O)[C@H](CC(C)C)NC(=O)[C@H](CCCCN)NC(=O)[C@H](CCCCN)NC(=O)[C@H](C)NC(=O)[C@H](CC(C)C)NC(=O)CNC(=O)[C@H](C)NC(=O)[C@H](Cc1c[nH]c2ccccc12)NC(=O)[C@H](CCCCN)NC(=O)[C@H](CCCCN)NC(=O)[C@H](C)NC(=O)[C@H](CC(C)C)NC(=O)CNC(=O)[C@H](C)NC(=O)[C@H](CC(C)C)NC(=O)[C@@H](N)CCCCN)C(=O)N[C@@H](C)C(=O)N[C@@H](CCCCN)C(N)=O [1,7-Hept, KLAGLAKKWAGLAKKLAGLAK-NH2] (H-KLAGLAKKWAGLAKKLAGLAK-NH2; N-terminus assumed)",16,8,16,,relatively low MIC values,,
"CCCCCCCC(=O)N[C@@H](CCCCN)C(=O)N[C@@H](CC(C)C)C(=O)N[C@@H](CCCCN)C(=O)N[C@@H](Cc1c[nH]c2ccccc12)C(=O)N[C@@H](CCCCN)C(=O)N[C@@H](CC(C)C)C(=O)N[C@@H](CCCCN)C(=O)N[C@@H](CC(C)C)C(=O)N[C@@H](CCCCN)C(=O)N[C@@H](CC(C)C)C(=O)N[C@@H](CCCCN)C(N)=O [Oct-Beta-11, Oct- K L K W K L K L K L K-NH2] (Octanoyl-KLKWKLKLKLK-NH2)",4,16,8,,reasonable antimicrobial activity,,
"CCCCCCCC(=O)N[C@@H](CCCCN)C(=O)N[C@@H](Cc1c[nH]c2ccccc12)C(=O)NCC(=O)N[C@@H](C)C(=O)N[C@@H](CCCCN)C(=O)N[C@H](C(N)=O)[C@@H](C)CC [Oct-KIGAKI-6, Oct- K W G A K I-NH2] (Octanoyl-KWGAKI-NH2)",>256,>256,>256,,no activity,,

# Continued, in another order:
MIC Staph. aureus [2] [µg/mL],MIC E. coli [3] [µg/mL],MIC Pseud. aerug [4] [µg/mL],MIC values [1] [µg/mL],SMILES,antimicrobial activity (in words) [1],calcein leakage from LUV (in words) ([5]; LUVs from E. coli lipids),calcein leakage from LUV (in words) ([5]; POPC (PC) LUV)
16,32,16,4 to 16,"CC(C)C[C@H](NC(=O)[C@H](CCCCN)NC(=O)[C@H](CC(C)C)NC(=O)[C@H](CCCCN)NC(=O)[C@H](CC(C)C)NC(=O)[C@H](CCCCN)NC(=O)[C@H](Cc1c[nH]c2ccccc12)NC(=O)[C@H](CCCCN)NC(=O)[C@H](CC(C)C)NC(=O)[C@H](CCCCN)NC(=O)[C@H](CC(C)C)NC(=O)[C@H](CCCCN)NC(=O)[C@H](CC(C)C)NC(=O)[C@@H](N)CCCCN)C(N)=O [KL-14, K L K L K L K W K L K L K L-NH2] (H-KLKLKLKWKLKLKL-NH2; N-terminus assumed)",,highly effective,quite lytic
16,64,32,4 to 16,"CC(C)C[C@H](NC(=O)[C@H](CCCCN)NC(=O)[C@H](CC(C)C)NC(=O)[C@H](CCCCN)NC(=O)[C@H](CC(C)C)NC(=O)[C@H](CCCCN)NC(=O)[C@H](CC(C)C)NC(=O)[C@H](CCCCN)NC(=O)[C@H](CC(C)C)NC(=O)[C@H](CCCCN)NC(=O)[C@H](Cc1c[nH]c2ccccc12)NC(=O)[C@H](CCCCN)NC(=O)[C@H](CC(C)C)NC(=O)[C@H](CCCCN)NC(=O)[C@H](CC(C)C)NC(=O)[C@H](CCCCN)NC(=O)[C@H](CC(C)C)NC(=O)[C@@H](N)CCCCN)C(N)=O [KL-18, K L K L K L K W K L K L K L K L K L-NH2] (H-KLKLKLKWKLKLKLKLKL-NH2; N-terminus assumed)",,highly effective,most potent; also recorded: quite lytic
